Test results: patent publication US20240426807A1, “SCREENING SYSTEM” (Givaudan SA, priority 2021, published 2024)
“Also recorded” adds a separate entry of the source.

Columns and labels:
Assay type in all cases: cell-based
OR5AN1 [1] = molecular target: T1, OR5AN1 (Homo sapiens, UniProt Q8NGI8); experiment: Ligand-induced blasticidin resistance, OR5AN1 cells (pGL4.29-CRE-BLAST-OR); conditions: HEK293T OR5AN1, odorant 10 μM, blasticidin 0.5-256 μg/ml, PrestoBlue viability day 4
T1 construct: expressed in transfected cells
T1 sequence (Q8NGI8 1-311): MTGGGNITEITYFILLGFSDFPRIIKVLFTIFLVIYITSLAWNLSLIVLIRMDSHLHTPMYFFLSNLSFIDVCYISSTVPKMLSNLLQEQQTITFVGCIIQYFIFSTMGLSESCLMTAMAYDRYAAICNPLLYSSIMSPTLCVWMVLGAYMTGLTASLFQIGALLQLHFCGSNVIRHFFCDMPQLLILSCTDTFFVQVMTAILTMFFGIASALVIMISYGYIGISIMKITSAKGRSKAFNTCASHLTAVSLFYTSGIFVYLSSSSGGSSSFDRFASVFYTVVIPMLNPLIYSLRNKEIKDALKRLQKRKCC
Excerpt: To generate a vector allowing positive selection of cell clones with a functional expression of a specific OR gene, a blasticidin resistance gene was placed downstream of SEQ ID NO: 4. The pGL4.29-CRE-Puro-OR vector generated as described in Example 1 was digested with BgIII and FseI to remove the comprised basal promoter and the complete puromycin resistance gene. The removed basal promoter sequence was amplified with the primers […] (SEQ ID NO: 28), […] (SEQ ID NO: 63), and the blasticidin S deaminase (bsd, SEQ ID NO: 64) encoding sequence was amplified by PCR using the primers […] (SEQ ID NO: 66) […] (SEQ ID NO: 67). The two overlapping PCR products were joined by fusion PCR using primers […] (SEQ ID NO: 28) and […] (SEQ ID NO: 68). The resulting DNA fragment was digested with BgIII/FseI and ligated into the digested vector to generate pGL4.29-CRE-Blast-OR.
This vector was used to generate stable cell lines as described in Example 1.
Stable clones containing a stable insertion of the pGL4.29-CRE-BLAST-OR construct with the receptor OR5AN1 (NCBI Genbank Gene ID: 390195) were then plated at a density of 3000 cells/per well in 100 μl Dubelcco's Modified Eagle medium (DMEM) in polyethyleneimide-coated, white 96 well microtiter plates with a transparent bottom. After cells were allowed to adhere for 24 h, 50 μl of medium containing different odorants (musk ketone or ethyl vanillin at 40 μM) was added to each well resulting in an odorant concentration of 13.3 μM. 6 h after odorant addition, 50 μl of medium containing blasticidin was added to reach a final concentration of 0.5-256 μg/ml in 10 two-fold dilution steps (day 1 of selection). This step further diluted the odorant to 10 μM. On day 4 of the selection (72 h after blasticidin addition), medium from each well was removed completely, 100 μl PrestoBlue® cell viability reagent (ThermoFisher Scientific, Catalog No: 14200-083) diluted in phosphate buffered saline containing 1 mg/ml glucose was added to each well and cells were incubated at 37° C. until a color change was visible in the wells containing no blasticidin. The fluorescence was determined at 560 excitation and 590 nm emission to assess relative cell metabolic activity, which is the net result of cell growth and cell killing in presence of the different blasticidin concentrations. The result was expressed as % viability relative to controls with no cells (0%) and cells treated with olfactory ligand only (100%).

OR10G7 = molecular target: T2, OR10G7 (Homo sapiens, UniProt Q8NGN6, T5S); experiment: Ligand-induced OR-dependent puromycin resistance, OR10G7 cells; conditions: HEK293T, pGL4.29-CRE-Puro-Hygro-OR with OR10G7; musk ketone 10 μM, eugenol or isoeugenol 1 μM, ultravanil or vanitrope 100 μM; puromycin 0.015-16 μg/ml; PrestoBlue viability day 4
T2 construct: expressed in transfected cells
T2 sequence (Q8NGN6 1-311 T5S): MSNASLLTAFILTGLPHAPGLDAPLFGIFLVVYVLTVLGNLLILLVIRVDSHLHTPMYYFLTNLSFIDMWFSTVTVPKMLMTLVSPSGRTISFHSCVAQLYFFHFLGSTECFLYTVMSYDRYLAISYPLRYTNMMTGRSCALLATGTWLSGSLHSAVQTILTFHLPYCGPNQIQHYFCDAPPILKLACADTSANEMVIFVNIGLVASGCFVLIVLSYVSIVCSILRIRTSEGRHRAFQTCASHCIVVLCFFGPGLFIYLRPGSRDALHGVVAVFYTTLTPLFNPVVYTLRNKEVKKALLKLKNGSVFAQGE
Method: (§1) Stable clones selected with hygromycin containing a stable insertion of the pGL4.29-CRE-Puro-Hygro-OR construct described in Example 1 with either one of the receptors OR10G7, OR10G9 or OR5AN1 (NCBI Genbank Gene ID 390265, 219870 and 390195) were plated at a density of 3000 cells/per well in 200 μl Dubelcco's Modified Eagle medium (DMEM) in polyethyleneimide-coated, white 96 well microtiter plates with a transparent bottom. After cells were allowed to adhere for 24 h, they were exposed to different odorants (musk ketone at 10 μM, eugenol or isoeugenol at 1 μM, ultravanil or vanitrope at 100 μM). 7 h after odorant addition, 100 μl of the medium was removed and replaced with fresh medium with the same odorant concentrations and, in addition, puromycin to reach a final concentration of 0.015-16 μg/ml in 11 twofold dilution steps (day 1 of selection). On day 2 and 3, 100 μl of the medium was again removed and replaced with fresh medium with the same concentration of odorant and puromycin. On day 4 of the selection, medium from each well was removed completely, 100 ul PrestoBlue® cell viability reagent (ThermoFisher Scientific, Catalog No: 14200-083) diluted in phosphate buffered saline was added to each well and cells were incubated at 37° C. until a color change was visible in the wells containing no puromycin. The fluorescence was determined at 560 excitation and 590 nm emission to assess relative cell metabolic activity, which is the net result of cell growth and cell killing in presence of the different puromycin concentrations. The result was expressed as % viability relative to controls with no cells (0%) and cells treated with olfactory ligand only (100%).

OR5AN1 [2] = molecular target: T1, OR5AN1; experiment: Ligand-induced OR-dependent puromycin resistance, OR5AN1 cells; conditions: HEK293T, pGL4.29-CRE-Puro-Hygro-OR with OR5AN1; musk ketone 10 μM, eugenol or isoeugenol 1 μM, ultravanil 100 μM; puromycin 0.015-16 μg/ml; PrestoBlue viability day 4
Method: as §1

OR10G9 = molecular target: T3, OR10G9 (Homo sapiens, UniProt Q8NGN4); experiment: Ligand-induced OR-dependent puromycin resistance, OR10G9 cells; conditions: HEK293T, pGL4.29-CRE-Puro-Hygro-OR with OR10G9; musk ketone 10 μM, eugenol or isoeugenol 1 μM, ultravanil or vanitrope 100 μM; puromycin 0.015-16 μg/ml; PrestoBlue viability day 4
T3 construct: expressed in transfected cells
T3 sequence (Q8NGN4 1-311): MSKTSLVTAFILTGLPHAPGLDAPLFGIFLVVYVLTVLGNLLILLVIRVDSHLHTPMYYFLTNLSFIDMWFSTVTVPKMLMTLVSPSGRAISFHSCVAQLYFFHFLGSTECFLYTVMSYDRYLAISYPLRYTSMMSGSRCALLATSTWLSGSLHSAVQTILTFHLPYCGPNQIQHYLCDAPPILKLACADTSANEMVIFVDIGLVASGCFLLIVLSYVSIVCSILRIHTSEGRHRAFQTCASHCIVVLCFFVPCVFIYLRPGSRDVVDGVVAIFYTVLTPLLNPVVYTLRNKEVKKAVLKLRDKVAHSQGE
Method: as §1

OR5A2 (clone 3) = molecular target: T4, OR5A2 (clone 3) (Homo sapiens, UniProt Q8NGI9); experiment: Ligand-induced puromycin resistance of isolated clone 3 containing OR5A2; conditions: for puromycin resistance of clone 3 in presence of odorant: clone 3 (OR5A2), 11 concentrations of puromycin, co-treated with olfactory ligands
T4 construct: expressed in transfected cells; clone 3 selected with musk ambrette and puromycin
T4 sequence (Q8NGI9 with tags, fused parts or gaps): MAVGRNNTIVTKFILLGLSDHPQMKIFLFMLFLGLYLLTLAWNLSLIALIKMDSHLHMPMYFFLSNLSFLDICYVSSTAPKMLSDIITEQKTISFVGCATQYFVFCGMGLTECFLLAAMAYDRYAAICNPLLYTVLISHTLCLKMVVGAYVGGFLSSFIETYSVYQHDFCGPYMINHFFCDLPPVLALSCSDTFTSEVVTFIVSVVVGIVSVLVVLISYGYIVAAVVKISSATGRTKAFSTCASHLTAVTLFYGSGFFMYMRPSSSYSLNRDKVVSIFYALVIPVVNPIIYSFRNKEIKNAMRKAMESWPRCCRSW

[3] = molecular target: T5, pool of cells with OR5A1, OR5A2, OR5AN1, OR6Y1, OR10G4, OR10G7 or OR10G9 (Homo sapiens, UniProt Q8NGN3); experiment: Selection of cognate-receptor cells from a pool of OR-expressing cells with the target ligand and puromycin; conditions: 100 μM vanitrope, puromycin 1 μg/ml, pool of 7 OR transfections
T5 construct: expressed in transfected cells; host or cells: HEK293T stably expressing RTP1S and RTP2; 7 separate transfections pooled
T5 sequence (Q8NGN3 1-311): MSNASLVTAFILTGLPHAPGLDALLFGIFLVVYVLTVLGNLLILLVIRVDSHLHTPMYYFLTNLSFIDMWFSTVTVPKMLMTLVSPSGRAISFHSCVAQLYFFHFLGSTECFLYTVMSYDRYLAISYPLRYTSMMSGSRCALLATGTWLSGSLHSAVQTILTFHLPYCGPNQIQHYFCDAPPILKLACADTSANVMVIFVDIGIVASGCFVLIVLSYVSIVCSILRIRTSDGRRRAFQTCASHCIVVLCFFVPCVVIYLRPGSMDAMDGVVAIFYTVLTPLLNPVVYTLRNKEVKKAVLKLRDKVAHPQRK
Method: For many ligands the cognate OR receptors are not known (“orphan receptors”), or it is unknown among a pool of receptors, which one has the best affinity for a ligand of interest, e.g. a perfumery note of particular interest. Thus, the ligand-induced selection pressure can be used to enrich a specific OR-expressing cell from a pool of OR-expressing cells in the presence of a ligand of interest. HEK293T cells stably expressing RTP1S and RTP2 were seeded into 7 wells of 6-well plates at 330,000 cells/well.
The next day, the cells of each well were transfected with 2 μg of a PvuI-linearized pGL4.29-CRE-Puro-Hygro-OR construct harboring one of the receptors OR5A1 (NCBI Genbank Gene ID: 219982), OR5A2 (NCBI Genbank Gene ID: 219981), OR5AN1 NCBI Genbank Gene ID: 390195, SEQ ID NO: 70), OR6Y1 (NCBI Genbank Gene ID: 391112), OR10G4 (NCBI Genbank Gene ID: 390264, SEQ ID NO: 72), OR10G7 (NCBI Genbank Gene ID: 390265, SEQ ID NO: 71), or OR10G9 (NCBI Genbank Gene ID: 219870). 24 h after transfection, the cells of all 7 transfections were harvested and pooled. 350 cells of this pool of cells with different OR genes inserted were then seeded into each well of seven 96-well plates.
3 days later, cells were stimulated with ligands for either OR5AN1 (10 μM musk ketone), OR10G7 (1 μM eugenol), or OR10G4 (100 μM vanitrope). One plate was treated with DMSO only. 6h after the addition of the OR ligands, puromycin was added to each plate at a final concentration of 1 μg/ml. On every day during the following week, the medium on all plates was replaced with fresh medium containing the corresponding ligand and puromycin. The plates were then searched for wells containing only a single colony of puromycin-resistant cells. The cells of those colonies were transferred to larger plates and grown until they had multiplied to about 8 Mio cells. The genomic DNA of 2 Mio cells of each clone were isolated using the Puregene kit according to the manufacturer's protocol. […]

CCOc1cc(C=O)ccc1O [ethyl vanillin]
blasticidin resistance in presence of odorant versus solvent control (OR5AN1 [1]): equally sensitive to blasticidin as in presence of the solvent control | blasticidin resistance in presence of odorant versus solvent control (OR5AN1 [1]; listed as ethylvanillin): does not increase resistance over solvent control

CC=Cc1ccc(O)c(OC)c1 [isoeugenol]
puromycin resistance in presence of odorant versus solvent control (OR10G7): increased resistance to puromycin; also recorded: strongly enhanced puromycin resistance | puromycin resistance in presence of odorant versus solvent control (OR5AN1 [2]): do not increase resistance over solvent control; also recorded: the resistance was equal to the solvent control | puromycin resistance in presence of odorant versus solvent control (OR10G9): no increased resistance

COc1c(C(C)(C)C)cc([N+](=O)[O-])c(C)c1[N+](=O)[O-] [musk ambrette]
puromycin resistance of clone 3 in presence of odorant (OR5A2 (clone 3)): increased resistance to puromycin | survival of clone 3 under puromycin treatment with ligand (OR5A2 (clone 3); musk ambrette 30 μM, puromycin 3 μg/ml, continuous exposure): able to survive puromycin treatment in presence of the ligand musk ambrette but not in its absence

CC(OC(C)(C)COC(=O)C1CC1)C1CCCC(C)(C)C1 (centres unmarked) [serenolide]
puromycin resistance of clone 3 in presence of odorant (OR5A2 (clone 3)): increased resistance to puromycin

CCOc1cc(C)ccc1O [ultravanil, vanilla cresol]
puromycin resistance in presence of odorant versus solvent control (OR10G7): increased resistance to puromycin; also recorded: strongly enhanced puromycin resistance | puromycin resistance in presence of odorant versus solvent control (OR5AN1 [2]): do not increase resistance over solvent control; also recorded: the resistance was equal to the solvent control | puromycin resistance in presence of odorant versus solvent control (OR10G9): increased resistance to puromycin; also recorded: selectively enhanced resistance

C/C=C/c1ccc(OCC)c(O)c1 [vanitrope, propenyl guaethol]
puromycin resistance in presence of odorant versus solvent control (OR10G7): increased resistance to puromycin; also recorded: strongly enhanced puromycin resistance | puromycin resistance in presence of odorant versus solvent control (OR10G9): increased resistance to puromycin; also recorded: selectively enhanced resistance | colonies selected with the ligand that contained OR10G4 [3]: 8 out of 8
